From patent US9809574B2, “Isoindoline or isoquinoline compounds, a process for their preparation and pharmaceutical compositions containing them” (LES LABORATOIRES SERVIER, priority 2013, dated 2017)

What was measured:
[1] = test system: RS4; 11 leukaemia cell line; assay: In vitro cytotoxicity, Microculture Tetrazolium Assay (MTT); format: cell-based; conditions: Homo sapiens, 11 cells exposed for 48 hours
Description: The cytotoxicity studies were carried out on the RS4; 11 leukaemia cell line and on H146 small Cell Lung Carcinoma cell line. The cells are distributed onto microplates and exposed to the test compounds for 48 hours. The cell viability is then quantified by a colorimetric assay, the Microculture Tetrazolium Assay (Cancer Res., 1987, 47, 939-942).

[2] = target: Bcl-2 protein (histag-Bcl-2, UniProtKB P10415) (Homo sapiens (Human), UniProt P10415); assay: Inhibition of Bcl-2 by the fluorescence polarisation technique; format: binding; conditions: fluorescence polarisation test; incubation for 2 hours; read-out: IC50 (nM) Bcl-2 FP
Sequence of Bcl-2 protein (P10415 whole entry): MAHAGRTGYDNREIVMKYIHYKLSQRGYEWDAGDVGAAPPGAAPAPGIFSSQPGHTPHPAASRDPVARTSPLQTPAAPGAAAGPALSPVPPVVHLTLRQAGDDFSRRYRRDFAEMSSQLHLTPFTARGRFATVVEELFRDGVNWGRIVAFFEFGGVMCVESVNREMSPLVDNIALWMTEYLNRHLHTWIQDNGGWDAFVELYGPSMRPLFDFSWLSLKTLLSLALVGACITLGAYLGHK
From the text: For partial inhibitors, the percentage fluorescence polarisation inhibition for a given concentration of the test compound is indicated.

Row | Compound | IC50 [1] | IC50 [2]
1 | C#Cc1ccc(OC(=O)N2CCc3cc(-c4cc(C(=O)N(C)c5ccc(O)cc5)c(C)n4C)c(C(=O)N4Cc5ccccc5C[C@H]4CN4CCOCC4)cc3C2)cc1 [Example 564, 4-Ethynylphenyl 6-{4-[(4-hydroxyphenyl)(methyl)carbamoyl]-1,5-dimethyl-1H-pyrrol-2-yl}-7-[(3S)-3-(morpholin-4-ylmethyl)-1,2,3,4-tetrahydroisoquinoline-2-carbonyl]-1,2,3,4-tetrahydroisoquinoline-2-carboxylate] | 3.3 nM | 4.5 nM
2 | CCN1CCc2cc(-c3cc(C(=O)N(C)c4ccc(O)cc4)c4n3CCCC4)c(C(=O)N3Cc4ccccc4C[C@H]3C)cc2C1 [Example 57, 3-{2-Ethyl-7-[(3R)-3-methyl-1,2,3,4-tetrahydroisoquinoline-2-carbonyl]-1,2,3,4-tetrahydroisoquinolin-6-yl}-N-(4-hydroxyphenyl)-N-methyl-5,6,7,8-tetrahydroindolizine-1-carboxamide] | 1250 nM | 65 nM
3 | C[C@@H]1Cc2ccccc2CN1C(=O)c1cc2c(cc1-c1cc(C(=O)N(C)c3ccc(O)cc3)c3n1CCCC3)CN(C(=O)Cc1csc(-c3cnccn3)n1)C2 [Example 31, N-(4-Hydroxyphenyl)-N-methyl-3-{6-[(3R)-3-methyl-1,2,3,4-tetrahydroisoquinoline-2-carbonyl]-2-{2-[2-(pyrazin-2-yl)-1,3-thiazol-4-yl]acetyl}-2,3-dihydro-1H-isoindol-5-yl}-5,6,7,8-tetrahydroindolizine-1-carboxamide] | 113 nM | 7.4 nM
4 | Cc1c(C(=O)N(C)c2ccc(O)cc2)cc(-c2cc3c(cc2C(=O)N2Cc4ccccc4C[C@H]2C)CN(C(=O)Oc2ccccc2OCCN(C)C)CC3)n1C [Example 392, 2-[2-(Dimethylamino)ethoxy]phenyl 6-{4-[(4-hydroxyphenyl) (methyl)carbamoyl]-1,5-dimethyl-1H-pyrrol-2-yl}-7-[(3R)-3-methyl-1,2,3,4-tetrahydroisoquinoline-2-carbonyl]-1,2,3,4-tetrahydroisoquinoline-2-carboxylate] | 14 nM | 2 nM
5 | C[C@@H]1Cc2ccccc2CN1C(=O)c1cc2c(cc1-c1cc(C(=O)N(C)c3ccc(O)cc3)c3n1CCCC3)CN(C(=O)N(C)C(C)(C)C)C2 [Example 81, N-tert-Butyl-5-{1-[(4-hydroxyphenyl)(methyl)carbamoyl]-5,6,7,8-tetrahydroindolizin-3-yl}-N-methyl-6-[(3R)-3-methyl-1,2,3,4-tetrahydroisoquinoline-2-carbonyl]-2,3-dihydro-1H-isoindole-2-carboxamide] | > 150 nM | 21 nM
